The record followed here is patent US9783536B2, “Nitrogen-containing heterocyclic compound or salt thereof” (FUJIFILM Corporation, priority 2013, dated 2017).

What all share (type): biochemical
One test concerns the target T1, human PI3Kα protein (Homo sapiens, UniProt P42336).
T1 construct: purchased Carna Biosciences, Inc; host or cells: baculovirus expression system
Nature of the test: PI3Kα enzyme assay (ADP-Glo). The note with it: read-out: PI3Kα enzyme inhibitory activity. The gist of the method: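 Biotinylated human PI3Kα (baculovirus-expressed, 4.5 nmol/L) pre-incubated 15 min with compound in Tris-HCl pH 7.5, MgCl2, BSA; reaction 60 min at 25° C with 50 μmol/L PIP2 and 100 μmol/L ATP final. ADP quantified by ADP-Glo luminescence; IC50 calculated.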
For orientation: ADP-Glo first removes unused ATP, then detects ADP through luciferase.

Test [1] addresses T2, GST fusion human ERK2 protein (Homo sapiens, UniProt P28482).
T2 construct: purchased Carna Biosciences, Inc; host or cells: E. coli expression system
Nature of the test: ERK2 enzyme assay (1). Conditions: read-out: ERK2 enzyme inhibitory activity (1). The method, then:
In an ERK2 enzyme assay, GLUTATHIONE S-TRANSFERASE (GST) FUSION HUMAN ERK2 PROTEIN (manufactured by Carna Biosciences, Inc.), which was produced by using an E. coli expression system, was used.
12 μL of a reaction liquid (2.5 nmol/L ERK2, 100 mmol/L Hepes, 10 mmol/L MgCl2, 1.5 mmol/L DTT, 0.003% Brij35, pH 7.5) including ERK2 protein and a test compound having a predetermined concentration was allowed to stand at room temperature for 15 minutes. Then, 3 μL of a mixture liquid of FL-PEPTIDE8 (5-FAM-IPTSPITTTYFFFKKK-COOH) (manufactured by Caliper Life Sciences), which is substrate peptide, and ATP (manufactured by Sigma-Aldrich Co. LLC.) was added thereto such that the final concentrations thereof became 4.25 μmol/L and 43.1 μmol/L, respectively, and an enzyme reaction was performed by allowing to stand at 25° C. for 120 minutes.
After the reaction, the enzyme reaction was stopped by adding 30 μL of a reaction stopper liquid (100 mmol/L HEPES, 11.2 mmol/L EDTA, 5.6% Brij35, pH 7.5) including a 0.5% COATING REAGENT 8 (trade name, manufactured by Perkin Elmer Inc.) thereto. Then, phosphorylated peptide and non-phosphorylated peptide were separated using LABCHIP EZ READER (trade name, manufactured by Caliper Life Sciences), and the porportion of the phosphorylated peptide was quantified.
The inhibitory activities of the compounds were evaluated using IC50 (50% inhibitory concentration). The IC50 was calculated using XLFIT (trade name, manufactured by ID Business Solutions).

The target in test [2] is T2, GST fusion human ERK2 protein. Nature of the test: ERK2 enzyme assay (2). Conditions: read-out: ERK2 enzyme inhibitory activity (2). The gist of the method: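 IC50 values come from mobility-shift measurement of phosphorylated versus unphosphorylated 5-FAM peptide substrate after EDTA quench. Beforehand, compound and 1.25 nmol/L E. coli-expressed GST–human ERK2 stood 15 min at room temperature (pH 7.5), then 1 mmol/L ATP and 4.25 μmol/L substrate (final) were added for 120 min at 25 °C.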

The mark [3] stands for this setting: 4.5 nmol/L PI3Kα, PIP2 50 μmol/L, ATP 100 μmol/L.
[4] abbreviates: 2.5 nmol/L ERK2, ATP 43.1 μmol/L.

Each structure is given as a SMILES string. Structures can show the parent of a compound that is named as a salt. Where two headings read alike, the source gives them in different places. Bounds are passed on as bounds.

T2 sequence (P28482 whole entry, the tested form may be a part): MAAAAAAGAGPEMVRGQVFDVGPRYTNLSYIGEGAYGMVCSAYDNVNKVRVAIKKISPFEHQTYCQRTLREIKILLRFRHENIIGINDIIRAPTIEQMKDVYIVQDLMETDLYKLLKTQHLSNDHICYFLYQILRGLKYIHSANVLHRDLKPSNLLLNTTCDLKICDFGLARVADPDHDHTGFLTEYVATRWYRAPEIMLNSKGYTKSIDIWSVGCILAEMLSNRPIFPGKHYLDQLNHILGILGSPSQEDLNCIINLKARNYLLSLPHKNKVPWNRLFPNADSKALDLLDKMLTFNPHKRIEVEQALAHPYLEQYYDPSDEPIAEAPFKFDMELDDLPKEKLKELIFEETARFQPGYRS
T1 sequence (P42336 whole entry): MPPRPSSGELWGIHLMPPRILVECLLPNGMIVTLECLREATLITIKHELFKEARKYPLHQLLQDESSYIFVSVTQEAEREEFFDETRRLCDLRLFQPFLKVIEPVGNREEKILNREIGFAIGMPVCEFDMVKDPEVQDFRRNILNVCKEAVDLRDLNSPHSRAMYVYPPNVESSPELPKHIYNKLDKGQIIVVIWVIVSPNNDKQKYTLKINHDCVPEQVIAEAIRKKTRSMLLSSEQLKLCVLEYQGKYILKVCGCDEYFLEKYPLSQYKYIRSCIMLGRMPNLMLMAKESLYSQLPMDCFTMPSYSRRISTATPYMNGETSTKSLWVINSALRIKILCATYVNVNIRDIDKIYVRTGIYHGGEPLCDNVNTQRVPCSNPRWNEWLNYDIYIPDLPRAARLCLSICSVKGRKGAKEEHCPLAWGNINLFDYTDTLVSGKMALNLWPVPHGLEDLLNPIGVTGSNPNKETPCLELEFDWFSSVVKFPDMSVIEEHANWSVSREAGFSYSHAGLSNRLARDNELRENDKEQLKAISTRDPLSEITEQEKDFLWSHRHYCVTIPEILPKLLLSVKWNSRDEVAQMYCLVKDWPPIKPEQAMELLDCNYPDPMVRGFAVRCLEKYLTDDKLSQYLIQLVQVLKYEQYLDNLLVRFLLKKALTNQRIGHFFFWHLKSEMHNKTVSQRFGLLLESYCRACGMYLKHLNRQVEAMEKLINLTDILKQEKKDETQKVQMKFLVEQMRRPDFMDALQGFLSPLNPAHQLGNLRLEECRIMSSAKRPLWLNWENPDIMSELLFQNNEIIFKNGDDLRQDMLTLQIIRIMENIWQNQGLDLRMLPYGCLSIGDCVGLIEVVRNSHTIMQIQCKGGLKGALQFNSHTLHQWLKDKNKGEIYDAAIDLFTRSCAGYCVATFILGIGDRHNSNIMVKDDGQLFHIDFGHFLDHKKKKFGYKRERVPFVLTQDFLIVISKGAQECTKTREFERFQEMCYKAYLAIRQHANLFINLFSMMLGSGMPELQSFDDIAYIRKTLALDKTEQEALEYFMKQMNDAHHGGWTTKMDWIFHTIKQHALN
T1 sequence (P27986 whole entry partner): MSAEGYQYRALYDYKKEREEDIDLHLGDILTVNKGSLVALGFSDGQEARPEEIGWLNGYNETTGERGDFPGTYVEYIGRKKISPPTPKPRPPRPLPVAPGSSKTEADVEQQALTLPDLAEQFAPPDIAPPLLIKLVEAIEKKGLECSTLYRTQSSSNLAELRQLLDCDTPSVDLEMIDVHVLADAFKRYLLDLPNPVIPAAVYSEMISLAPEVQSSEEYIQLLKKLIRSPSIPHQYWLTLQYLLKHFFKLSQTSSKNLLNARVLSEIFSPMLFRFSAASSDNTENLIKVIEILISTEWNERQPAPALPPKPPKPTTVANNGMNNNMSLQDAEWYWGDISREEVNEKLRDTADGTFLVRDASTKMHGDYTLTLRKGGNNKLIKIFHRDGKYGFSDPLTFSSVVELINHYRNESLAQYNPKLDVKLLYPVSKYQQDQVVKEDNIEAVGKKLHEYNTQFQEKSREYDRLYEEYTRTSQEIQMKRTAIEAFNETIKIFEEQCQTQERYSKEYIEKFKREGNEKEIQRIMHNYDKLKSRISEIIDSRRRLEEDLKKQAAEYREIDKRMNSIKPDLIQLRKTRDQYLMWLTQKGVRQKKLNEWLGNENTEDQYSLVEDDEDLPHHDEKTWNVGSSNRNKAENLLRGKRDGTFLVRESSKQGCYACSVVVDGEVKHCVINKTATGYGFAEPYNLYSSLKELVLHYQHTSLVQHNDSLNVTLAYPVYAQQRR

Turning to `c1nnc(Nc2ccc3ncc(-c4cnn(CCN5CCOCC5)c4)cc3n2)s1` [Example 0002], the IC50 (at human PI3Kα protein (setting [3]); in test [1] (setting [4])) was less than 1000 nM each time.

In the case of `c1nnc(Nc2ccc3ncc(N4CCOCC4)cc3n2)s1` [Example 0003, N-(7-morpholino-1,5-naphthyridin-2-yl)-1,3,4-thiadiazole-2-amine], the IC50 on human PI3Kα protein (setting [3]) was 1000 to 10000 nM; in test [1] (setting [4]), less than 1000 nM.

Take `CC(C)c1nnc(Nc2ccc3nccc(Nc4ccncc4)c3n2)s1` [Example 0004, N^2-(5-isopropyl-1,3,4-thiadiazol-2-yl)-N^8-(pyridin-4-yl)-1,5-naphthyridine-2,8-diamine]: the IC50 (at human PI3Kα protein (setting [3]); in test [1] (setting [4])) was less than 1000 nM each time.

On to `CC(C)c1nnc(Nc2ccc3nccc(Nc4cccnc4)c3n2)s1` [Example 0006], for which the IC50 (at human PI3Kα protein (setting [3]); in test [1] (setting [4])) was less than 1000 nM in each case.

Consider `Cn1cc(-c2cnc3ccc(Nc4nnc(-c5ccccc5)s4)nc3c2)cn1` [Example 0028], for which, in test [1] (setting [4]), the IC50 was less than 1000 nM.

Consider `Cc1nnc(Nc2ccc3ncc(-c4cnn(C)c4)cc3n2)o1` [Example 0031, 5-methyl-N-(7-(1-methyl-1H-pyrazol-4-yl)-1,5-naphthyridin-2-yl)-1,3,4-oxadiazole-2-amine hydrochloride], for which, in test [1] (setting [4]), the IC50 lay in the range of 1000 to 10000 nM.

Turning to `Brc1cnc2ccc(Nc3nnc(C4CCCC4)s3)nc2c1` [Example 0039, N-(7-bromo-1,5-naphthyridin-2-yl)-5-cyclopentyl-1,3,4-thiadiazole-2-amine], the IC50 in test [1] (setting [4]) was less than 1000 nM.

Turning to `C#Cc1cnc2ccc(Nc3nnc(C4CCCC4)s3)nc2c1` [Example 0042, 5-cyclopentyl-N-(7-ethynyl-1,5-naphthyridin-2-yl)-1,3,4-thiadiazole-2-amine hydrochloride], the IC50 in test [1] (setting [4]) lay in the range of 10000 to 50000 nM.

For `c1cncc(Oc2cnc3ccc(Nc4nnc(C5CCCC5)s4)nc3c2)c1` [Example 0044, 5-cyclopentyl-N-(7-((pyridin-3-yl)oxy)-1,5-naphthyridin-2-yl)-1,3,4-thiadiazole-2-amine hydrochloride], the IC50 in test [1] (setting [4]) is 1000 to 10000 nM.

On to `FC(F)(F)CN1CCN(c2cnc3ccc(Nc4nnc(C5CCCC5)s4)nc3c2)CC1` [Example 0049], for which the IC50 in test [1] (setting [4]) is 1000 to 10000 nM.

For the compound `c1cn(-c2cc(Nc3cnc4ccc(Nc5nnc(C6CCCC6)s5)nc4c3)ccn2)nn1` [Example 0080], the IC50 in test [1] (setting [4]) is less than 1000 nM.

Take `COc1ccc(Nc2ccc3ncc(-c4cnn(C)c4)cc3n2)nn1` [Example 0149]: the IC50 in test [1] (setting [4]) lay within 1000 to 10000 nM.

For `Cn1cc(-c2cnc3ccc(Nc4nnc(C(F)(F)F)s4)nc3c2)cn1` [Example 0164], the IC50 in test [1] (setting [4]) is less than 1000 nM.

For the compound `Cn1cc(-c2cnc3ccc(Nc4nnc(C(N)=O)s4)nc3c2)cn1` [Example 0168, 5-((7-(1-Methyl-1H-pyrazol-4-yl)-1,5-naphthyridin-2-yl)amino)-1,3,4-thiadiazole-2-carboxamide], in test [1] (setting [4]), the IC50 was less than 1000 nM.

In the case of `CSc1nnc(Nc2ccc3ncc(-c4cnn(C)c4)cc3n2)s1` [Example 0174, N-(7-(1-methyl-1H-pyrazol-4-yl)-1,5-naphthyridin-2-yl)-5-(methylthio)-1,3,4-thiadiazole-2-amine], the IC50 in test [1] (setting [4]) is less than 1000 nM.

Consider `Cn1cc(-c2cnc3ccc(Nc4nnc(C5CCC5)s4)nc3c2)cn1` [Example 0198, 5-Cyclobutyl-N-(7-(1-methyl-1H-pyrazol-4-yl)-1,5-naphthyridin-2-yl)-1,3,4-thiadiazole-2-amine], for which the IC50 in test [1] (setting [4]) was less than 1000 nM.

Regarding `COc1ccc(-c2cnc3ccc(Nc4nnc(C5CCCC5)s4)nc3c2)cc1OC` [Example 0203], in test [1] (ERK2 enzyme assay (1)), the IC50 is less than 1000 nM.

As for `COc1cc(-c2cnc3ccc(Nc4nnc(C5CCCC5)s4)nc3c2)cc(OC)c1OC` [Example 0204], the IC50 in test [1] (ERK2 enzyme assay (1)) was less than 1000 nM.

For `COc1ccccc1-c1cnc2ccc(Nc3nnc(C4CCCC4)s3)nc2c1` [Example 0211], in test [1] (ERK2 enzyme assay (1)), the IC50 is less than 1000 nM.

For the compound `COc1cccc(-c2cnc3ccc(Nc4nnc(C5CCCC5)s4)nc3c2)c1` [Example 0212], in test [1] (ERK2 enzyme assay (1)), the IC50 was less than 1000 nM.

For `COc1ccc(-c2cnc3ccc(Nc4nnc(C5CCCC5)s4)nc3c2)cc1` [Example 0213], the IC50 in test [1] (ERK2 enzyme assay (1)) is less than 1000 nM.

For `Cc1noc(C)c1-c1cnc2ccc(Nc3nnc(C4CCCC4)s3)nc2c1` [Example 0216], the IC50 in test [1] (ERK2 enzyme assay (1)) was less than 1000 nM.

Consider `c1ccc(-c2cnc3ccc(Nc4nnc(C5CCCC5)s4)nc3c2)cc1` [Example 0218, 5-Cyclopentyl-N-(7-phenyl-1,5-naphthyridin-2-yl)-1,3,4-thiadiazole-2-amine], for which, in test [1] (ERK2 enzyme assay (1)), the IC50 is less than 1000 nM.

Consider `CCOC(=O)c1nnc(Nc2ccc3ncc(-c4cnn(C)c4)cc3n2)s1` [Example 0230], for which the IC50 in test [1] (ERK2 enzyme assay (1)) was less than 1000 nM.

Take `COc1cccc(-c2ccnc3ccc(Nc4nnc(C(C)C)s4)nc23)c1` [Example 0271]: in test [1] (ERK2 enzyme assay (1)), the IC50 was less than 1000 nM.

In the case of `CC(C)(C)OC(=O)N1CC=C(c2cnc3ccc(Nc4nnc(C5CCCC5)s4)nc3c2)CC1` [Example 0328, tert-butyl 4-(6-((5-cyclopentyl-1,3,4-thiadiazol-2-yl)amino)-1,5-naphthyridin-3-yl)-5,6-dihydropyridine-1(2H)-carboxylate], the IC50 in test [1] (ERK2 enzyme assay (1)) is less than 1000 nM.

On to `CC(C)(C)OC(=O)N1CCC(c2cnc3ccc(Nc4nnc(C5CCCC5)s4)nc3c2)CC1` [Example 0331, tert-butyl 4-(6-((5-cyclopentyl-1,3,4-thiadiazol-2-yl)amino)-1,5-naphthyridin-3-yl)piperidine-1-carboxylate], for which the IC50 in test [1] (ERK2 enzyme assay (1)) is 1000 to 10000 nM.

Turning to `FC(F)(F)CN1CCC(n2cc(-c3cnc4ccc(Nc5nnc(C6CCCC6)s5)nc4c3)cn2)CC1` [Example 0340, 5-cyclopentyl-N-(7-(1-(1-(2,2,2-trifluoroethyl)piperidin-4-yl)-1H-pyrazol-4-yl)-1,5-naphthyridin-2-yl)-1,3,4-thiadiazole-2-amine], in test [1] (ERK2 enzyme assay (1)), the IC50 was less than 1000 nM.

On to `CC(C)c1cnnc(Nc2ccc3ncc(-c4ccccc4)cc3n2)c1` [Example 0408], for which the IC50 in test [1] (ERK2 enzyme assay (1)) was less than 1000 nM.

With `CCOc1c(-c2cnn(C)c2)cnc2ccc(Nc3cc(C(C)C)cnn3)nc12` [Example 0951, 8-Ethoxy-N-(5-isopropylpyridazin-3-yl)-7-(1-methyl-1H-pyrazol-4-yl)-1,5-naphthyridine-2-amine], the IC50 (on human PI3Kα protein; in test [2]) was less than 1000 nM throughout.

Turning to `CC(C)c1cnnc(Nc2ccc3ncc(-c4cnn(C)c4)c(Cl)c3n2)c1` [Example 0952, 8-Chloro-N-(5-isopropylpyridazin-3-yl)-7-(1-methyl-1H-pyrazol-4-yl)-1,5-naphthyridine-2-amine], the IC50 (at human PI3Kα protein; in test [2]) was less than 1000 nM throughout.

Regarding `CC(C)c1cnnc(Nc2ccc3ncc(-c4cnn(C)c4)c(-c4ccncc4)c3n2)c1` [Example 0953, N-(5-isopropylpyridazin-3-yl)-7-(1-methyl-1H-pyrazol-4-yl)-8-(pyridin-4-yl)-1,5-naphthyridine-2-amine], the IC50 (on human PI3Kα protein; in test [2]) was less than 1000 nM in each case.

In the case of `CC(C)c1cnnc(Nc2ccc3ncc(-c4cnn(C)c4)c(-c4cccnc4)c3n2)c1` [Example 0954, N-(5-isopropylpyridazin-3-yl)-7-(1-methyl-1H-pyrazol-4-yl)-8-(pyridin-3-yl)-1,5-naphthyridine-2-amine], the IC50 (at human PI3Kα protein; in test [2]) was less than 1000 nM throughout.

Take `CC(C)c1cnnc(Nc2ccc3ncc(-c4cnn(C)c4)c(N4CCOCC4)c3n2)c1` [Example 0955, N-(5-isopropylpyridazin-3-yl)-7-(1-methyl-1H-pyrazol-4-yl)-8-morpholino-1,5-naphthyridine-2-amine]: the IC50 (on human PI3Kα protein; in test [2]) was less than 1000 nM each time.
